Measured values: patent US6890523B2 (priority 1999, dated 2005)

Tested on: C. difficile
Conditions: hamster; relapse/recurrence of CDAD
Experimental: Compounds were evaluated for their ability to inhibit the activity of C. difficile toxins the hamster model of C. difficile colitis. Male hamsters (80-100 g) were purchased Biobreeders Inc. (Falmouth, Mass.). All animals were maintained in groups of five in microisolator cages on autoclaved bedding (Beta Chips) and given free access to autoclaved chow and autoclaved, filtered water. Animals were rested approximately 1 week following arrival and prior to initiation of a study. A C. difficile strain initially isolated from a human C. difficile colitis was used to infect the animals. This strain (HUC2-4) produces moderate to high levels of toxins in vitro and in vivo. A suspension of 10^6-10^7 bacterial cells/ml was prepared from an overnight broth culture and 0.1 ml was administered by oral gavage on day −1. Twenty-four hours later, each animal was injected subcutaneously with Cleocin Phosphate IV® at a dose of 10 mg/kg. Polymers were administered to groups of ten animals by gavage three times daily (t.i.d). The dose of polymers was 25-100 mg/day, administered in three divided doses of 0.75 ml each. Initiation and duration of dosing varied according to the treatment regimens as described below. Animals were observed daily for morbidity or mortality. Additional parameters assessed were general appearance, time to onset of clinical signs, and presence or absence of diarrhea (“wet tail”). […]

## Cc1ncc([N+](=O)[O-])n1CCO [metronidazole]
  time to death after discontinuing metronidazole: 3 to 6 days
